Results reported in publication PMC11809415 (The Journal of Cell Biology, 2025).

Legend:
F-actin [1] = assay: Actin bundling assay using low-speed centrifugation (10,000 g); format: biochemical, rabbit skeletal muscle α-actin; conditions: for F-actin in the pellet: 10 μM actin filaments, 5 min RT, 10,000 g
Procedure: (§1) Rabbit skeletal muscle α-actin was purified from muscle acetone powder (Pel-Freez Biologicals) as described in [Merino et al. (2018)] and stored in 50 μl aliquots at −70°C.
8 μl of actin filaments at 10 μM were mixed with peptides at the specified concentration, incubated for 5 min at room temperature, and spun down at 10,000 g for 10 min at 4°C. Aliquots of the supernatant and resuspended pellet fractions were separated on SDS-polyacrylamide gels with 2,2,2-trichloroethanol ([Ladner-Keay et al., 2018]) and visualized with ultraviolet light.

[2] = system: actin (ADP-ribosylation by TcART, Photorhabdus luminescens); assay: ADP-ribosylation of actin by TcART in presence of actin-binding peptides; format: biochemical, rabbit skeletal muscle α-actin; conditions: for ADP-ribosylation level: relative to no peptide = 1, […] actin, 314 pM TcART, 10 min 37°C
Procedure: as §1
TcART, the ADP-ribosyltransferase from P. luminescens Tc toxin, was purified from E. coli BL21-CodonPlus(DE3)-RIPL harboring the plasmid pB656 as described previously ([Belyy et al., 2022]).
A total of 8-μl mixtures of 2 μg (4.8 μM final concentration) actin and actin-binding peptides at specified concentrations were preincubated for 5 min at room temperature in the buffer containing 1 mM NAD, 20 mM Tris pH 8, 150 mM NaCl, and 1 mM MgCl2. The ADP ribosylation reaction was initiated by the addition of 0.2 ng (314 pM) of TcART to the mixture. After 10 min of incubation at 37°C, the reaction was stopped by adding Laemmli sample buffer and heating the sample at 95°C for 5 min. The components of the mixture were separated by SDS-PAGE, blotted onto a polyvinylidene difluoride (PVDF) membrane using a Trans-Blot Turbo Transfer System (Bio-Rad), and visualized using a combination of the His-tagged ADP-ribose binding protein at the concentration of 0.01 mg/ml and HisProbe-HRP conjugate. The level of actin ADP-ribosylation was quantified by densitometry using ImageJ.

actin filaments = conditions: ref Belyy et al., 2020, Kumari et al.; cited from earlier work
Source text: (§2) To minimize steric clashes of large probes, small fluorophore-labeled peptides have been developed. The most commonly used is Lifeact, a 17-amino acid peptide derived from the N-terminus of the Saccharomyces cerevisiae actin-binding protein 140 (Abp140).

[3] = system: actin-dependent morphogenesis; conditions: certain experimental systems: yeast, Drosophila, C. elegans, zebrafish, mammalian cells; ref Courtemanche et al., 2016; Spracklen et al., 2014; Ono, 2024; Xu and Du, 2021; Flores et al., 2019; cited from earlier work
Source text: as §2

F-actin [4] = assay: Cryo-EM of peptide mixed with F-actin; format: binding, rabbit skeletal muscle α-actin
Procedure: as §1
Actin filaments were prepared as for cosedimentation assays. Shortly before plunging, F-actin was diluted to 6 µM with F-buffer. […] 3 μl of sample was applied onto a freshly glow-discharged copper R2/1 300 mesh grid (Quantifoil), blotted for 8 s on both sides with blotting force −15, and plunge-frozen in liquid ethane using the Vitrobot Mark IV system (Thermo Fisher Scientific) at 13°C and 100% humidity.
The datasets were collected using a Talos Arctica transmission electron microscope (Thermo Fisher Scientific) equipped with an XFEG at 200 kV using the automated data-collection software EPU version 2.7 (Thermo Fisher Scientific). Two images per hole with a defocus range of −0.5 to −2.5 µm were collected with a K3 detector (Gatan) operated in super-resolution mode. […] After motion correction was performed in Relion (RRID:SCR_016274) version 3.1, the micrographs were imported into Cryosparc for patch CTF estimation. […]
Before deposition, the structures were refined in real space in Phenix (RRID:SCR_014224) ([Liebschner et al., 2019]) with secondary structure and reference model restraints. The statistics presented in Table 1 were calculated by MolProbity (RRID:SCR_014226) ([Williams et al., 2018]).

Drosophila = conditions: ref Spracklen et al., 2014; cited from earlier work
Source text: (§3) However, in Xenopus XTC cells, expr ...

Xenopus XTC cells = conditions: ref Belin et al., 2014; cited from earlier work
Source text: as §3

cells = conditions: ref Vosatka et al., 2022; cited from earlier work
Source text: as §3

primary neurons = conditions: ref Patel et al., 2017; cited from earlier work
Source text: as §3

## Lifeact: 17-amino acid peptide derived from the N-terminus of Saccharomyces cerevisiae actin-binding protein 140 (Abp140) [reference compound]
F-actin [1]; peptide 10 µM, Repeat 1
  F-actin in the pellet: 0,07218
F-actin [1]; peptide 10 µM, Repeat 2
  F-actin in the pellet: 0,09382
F-actin [1]; peptide 10 µM, Repeat 3
  F-actin in the pellet: 0,137443
F-actin [1]; peptide 100 µM, Repeat 1
  F-actin in the pellet: 0,1046
F-actin [1]; peptide 100 µM, Repeat 2
  F-actin in the pellet: 0,117135
F-actin [1]; peptide 100 µM, Repeat 3
  F-actin in the pellet: 0,14654
F-actin [1]; peptide 1000 µM, Repeat 1
  F-actin in the pellet: 0,339777
F-actin [1]; peptide 1000 µM, Repeat 2
  F-actin in the pellet: 0,164721
F-actin [1]; peptide 1000 µM, Repeat 3
  F-actin in the pellet: 0,309232
[2]; peptide 1 µM, Repeat 1
  ADP-ribosylation level: 0,978733
[2]; peptide 1 µM, Repeat 2
  ADP-ribosylation level: 0,811616
[2]; peptide 1 µM, Repeat 3
  ADP-ribosylation level: 1,268379
[2]; peptide 3 µM, Repeat 1
  ADP-ribosylation level: 0,825802
[2]; peptide 3 µM, Repeat 2
  ADP-ribosylation level: 0,671345
[2]; peptide 3 µM, Repeat 3
  ADP-ribosylation level: 1,323177
[2]; peptide 10 µM, Repeat 1
  ADP-ribosylation level: 0,671724
[2]; peptide 10 µM, Repeat 2
  ADP-ribosylation level: 1,132312
[2]; peptide 10 µM, Repeat 3
  ADP-ribosylation level: 0,970817
[2]; peptide 30 µM, Repeat 1
  ADP-ribosylation level: 0,313245
[2]; peptide 30 µM, Repeat 2
  ADP-ribosylation level: 0,438167
[2]; peptide 30 µM, Repeat 3
  ADP-ribosylation level: 0,331448
[2]; peptide 100 µM, Repeat 1
  ADP-ribosylation level: 0
[2]; peptide 100 µM, Repeat 2
  ADP-ribosylation level: 0,032044
[2]; peptide 100 µM, Repeat 3
  ADP-ribosylation level: 0,093063
[2]; peptides up to 100 µM
  effect on TcART modification of F-actin (in words): inhibited TcART activity in a similar dose-dependent manner
Actin filaments
  competition for binding site on actin filaments: competes with cofilin, myosin, and other actin-binding factors for the same binding site on actin filaments
[3]
  effect on actin-dependent morphogenesis: dramatically altered actin-dependent morphogenesis

## MARPRGAGPCSPGLERAPRRSVGELRLLFEARCAAVAAAAAAG [F-tractin, 43 amino acid peptide, residues 10–52 of rat inositol 1,4,5-trisphosphate 3-kinase A; EGFP fusion in cell assays]
F-actin [1]; in vitro, up to 100 µM, low-speed centrifugation and cryo-EM
  actin bundling (in words): strong bundling effect on F-actin
F-actin [1]; peptide 1 µM, Repeat 1
  F-actin in the pellet: 0,052087
F-actin [1]; peptide 1 µM, Repeat 2
  F-actin in the pellet: 0,032888
F-actin [1]; peptide 1 µM, Repeat 3
  F-actin in the pellet: 0,047528
F-actin [1]; peptide 10 µM, Repeat 1
  F-actin in the pellet: 0,092603
F-actin [1]; peptide 10 µM, Repeat 2
  F-actin in the pellet: 0,600815
F-actin [1]; peptide 10 µM, Repeat 3
  F-actin in the pellet: 0,323365
F-actin [1]; peptide 100 µM, Repeat 1
  F-actin in the pellet: 0,999376
F-actin [1]; peptide 100 µM, Repeat 2
  F-actin in the pellet: 0,989657
F-actin [1]; peptide 100 µM, Repeat 3
  F-actin in the pellet: 0,931572
F-actin [4]; estimated from alignment-free 3D classification, 100 μM peptide
  F-tractin occupancy on F-actin: ~ 50%
F-actin [4]; preformed F-actin incubated with 100 μM peptide
  appearance of actin filaments by cryo-EM: large heterogeneous bundles instead of single actin filaments
Drosophila
  effect on fertility and actin in Drosophila oogenesis: without causing female sterility or significant actin defects
Xenopus XTC cells
  effect of expression on actin structures: induced radial actin bundles and longer filopodia
cells
  cell stiffness and cell migration: increase in cell stiffness and reduction in cell migration
Primary neurons
  reporting on F-actin organization in primary neurons: without notable effects on cell function
